Measured values taken from ChEMBL document CHEMBL4364293, “Design, Synthesis, and Structure-Activity Relationship of 7-Propanamide Benzoxaboroles as Potent Anticancer Agents” (J Med Chem, 2019).

Experiments:
WI-38 = experiment: Cytotoxicity against human WI38 cells after 72 hrs by MTT assay; assay type: cell-based; details: WI-38, 72 h
MDA-MB-231 = experiment: Antiproliferative activity against human MDA-MB-231 cells after 72 hrs by MTT assay; assay type: functional, cell-based; details: MDA-MB-231, 72 h
SK-OV-3 = experiment: Antiproliferative activity against human SKOV3 cells after 72 hrs by MTT assay; assay type: functional, cell-based; details: SK-OV-3, 72 h
HCT-116 = experiment: Antiproliferative activity against human HCT116 cells after 72 hrs by MTT assay; assay type: functional, cell-based; details: HCT-116, 72 h

SMILES	IC50 (WI-38) [µM]	IC50 (MDA-MB-231) [µM]	IC50 (SK-OV-3) [µM]	IC50 (HCT-116) [µM]
COc1cc(OC)cc(-c2cccc(NC(=O)CCc3cccc4c3B(O)OC4)c2)c1	1.7	0.04	0.044	0.053
C#Cc1cccc(NC(=O)CCc2cccc3c2B(O)OC3)c1	> 100	1.6	0.98	3.6
O=C(O)CCc1cccc2c1B(O)OC2	> 100	> 100	> 100	> 100
CCOC(=O)c1ccc(NC(=O)CCc2cccc3c2B(O)OC3)cc1	> 100	> 100	> 100	> 100
O=C(CCc1cccc2c1B(O)OC2)Nc1cccc(-c2cccc(Cl)c2)c1	58	0.25	0.3	0.35
CC(C)(C)NC(=O)CCc1cccc2c1B(O)OC2	> 100	> 100	> 100	> 100
COc1cccc(-c2cccc(NC(=O)CCc3ccc4c(c3)B(O)OC4)c2)c1	> 100	49	62	21
COc1cc(OC)cc(-c2cccc(NC(=O)CCc3ccc4c(c3)B(O)OC4)c2)c1	> 100	21	29	3.7
O=C(CCc1cccc2c1B(O)OC2)Nc1ccc2ccccc2c1	> 100	1.8	1.4	1.7
CC(C)(C)OC(=O)NCc1ccc(NC(=O)CCc2cccc3c2B(O)OC3)cc1	4.8	1.3	2	2.3
CC(=O)c1ccc(-c2cccc(NC(=O)CCc3cccc4c3COB4O)c2)cc1	> 100	41	57	48
O=C(CCc1cccc2c1B(O)OC2)Nc1ccc(-c2ccccc2)cc1	32	8.8	48	13
COc1ccccc1NC(=O)CCc1cccc2c1B(O)OC2	1.6	0.93	0.2	0.43
O=C(CCc1cccc2c1B(O)OC2)Nc1ccccc1-c1ccccc1	77	18	26	23
O=C(CCc1cccc2c1B(O)OC2)Nc1cccc(-c2ccccc2)c1	12	0.22	0.25	0.89
COc1cc(OC)cc(-c2cccc(NC(=O)CCc3cccc4c3COB4O)c2)c1	> 100	93	88	50
C#Cc1ccc(NC(=O)CCc2cccc3c2B(O)OC3)cc1	> 100	6.6	6.3	45
OB1OCc2cc(F)ccc21 [TAVABOROLE]	32	> 100	> 100	65
COc1cc(OC)cc(-c2cccc(NC(=O)CCc3ccc4c(c3)COB4O)c2)c1	> 100	77	93	56
N#Cc1cccc(-c2cccc(NC(=O)CCc3cccc4c3B(O)OC4)c2)c1	7.3	0.11	0.12	0.14
Cc1cc(C)c(NC(=O)CCc2cccc3c2B(O)OC3)c(C)c1	74	71	19	64
O=C(CCc1cccc2c1C(O)OC2)Nc1ccccc1 (stereo not given)	42	12	78	22
C#Cc1ccccc1NC(=O)CCc1cccc2c1B(O)OC2	18	1.3	0.82	1.4

SMILES	IC50 (WI-38) [µM]	IC50 (MDA-MB-231) [µM]	IC50 (SK-OV-3) [µM]	IC50 (HCT-116) [µM]
O=C(CCc1cccc2c1B(O)OC2)NCCc1ccccc1	> 100	> 100	> 100	> 100
O=C(CCc1cccc2c1B(O)OC2)Nc1cccc(-c2cccc(OC(F)(F)F)c2)c1	9.8	0.46	0.46	0.31
O=C(CCc1cccc2c1B(O)OC2)Nc1cccc(-c2ccc(C(F)(F)F)cc2)c1	26	0.51	0.5	0.55
O=C(/C=C/c1cccc2c1B(O)OC2)Nc1ccccc1	> 100	> 100	> 100	> 100
CC(C)(C)OC(=O)Nc1ccc(NC(=O)CCc2cccc3c2B(O)OC3)cc1	> 100	29	> 100	24
COc1cccc(-c2cccc(NC(=O)CCc3cccc4c3C(O)OC4)c2)c1 (stereo not given)	93	52	61	49
O=C(CCc1cccc2c1B(O)OC2)NC1CCCCC1	> 100	> 100	> 100	> 100
CCNC(=O)CCc1cccc2c1B(O)OC2	> 100	> 100	> 100	> 100
O=C(CCc1cccc2c1B(O)OC2)NCc1ccccc1	> 100	> 100	> 100	> 100
O=C(CCc1cccc2c1B(O)OC2)Nc1cccc(I)c1	71	5.3	0.63	2.3
Cc1ccc(NC(=O)CCc2cccc3c2B(O)OC3)cc1	> 100	1.1	0.86	4.5
CC(C)c1cccc(NC(=O)CCc2cccc3c2B(O)OC3)c1	22	1.6	0.51	1.6
COc1cccc(-c2cccc(NC(=O)CCc3ccccc3)c2)c1	> 100	25	24	40
O=C(CCc1cccc2c1B(O)OC2)Nc1nccs1	> 100	> 100	> 100	> 100
CC(=O)c1cccc(-c2cccc(NC(=O)CCc3cccc4c3B(O)OC4)c2)c1	2.2	0.052	0.068	0.086
O=C(CCc1cccc2c1B(O)OC2)Nc1ccc(Br)cc1	42	5.3	9.2	46
O=C(CCc1cccc2c1B(O)OC2)Nc1cccc(-c2ccc(OC(F)(F)F)cc2)c1	25	0.64	0.56	0.73
O=C(CCc1cccc2c1B(O)OC2)Nc1cccc(-c2cccc(F)c2)c1	37	0.57	0.48	0.46
COc1cccc2c1C(=O)c1c(O)c3c(c(O)c1C2=O)C[C@@](O)(C(=O)CO)C[C@@H]3O[C@H]1C[C@H](N)[C@H](O)[C@H](C)O1 [DOXORUBICIN]	0.59	0.0069	0.032	0.023
CC(=O)c1ccc(-c2cccc(NC(=O)CCc3ccc4c(c3)COB4O)c2)cc1	> 100	66	79	63
O=C(CCc1cccc2c1B(O)OC2)Nc1ccc([N+](=O)[O-])cc1	> 100	36	83	> 100
CC(=O)c1ccc(-c2cccc(NC(=O)CCc3cccc4c3C(O)OC4)c2)cc1 (stereo not given)	> 100	29	41	18
